Assay results reported in article PMC4436593, “Endoplasmic reticulum stress-independent activation of unfolded protein response kinases by a small molecule ATP-mimic” (eLife, 2015).
“And” between values parts separate entries of the source, which are not always exact repeats. Equal values may be shown once.

Legend:
[1] = system: IRE1α-GFP in T-REx293 cells; assay: IRE1-GFP foci formation in T-REx293 cells (confocal microscopy); format: cell-based; conditions: doxycycline-induced IRE1α-GFP
From the text: We next used a T-REx293 cell line, containing a genome-integrated doxycycline-inducible IRE1α-GFP fusion gene, to monitor IRE1α oligomerization in vivo ([Li et al., 2010]). In the presence of doxycycline, IRE1α-GFP was expressed and localized to the ER (Figure 2D). […] Furthermore, the foci dissolved by 8 hr of treatment as cells attenuated IRE1α signaling even in the presence of unmitigated ER stress (Figure 2D, upper panels) ([Li et al., 2010]). […] While Tm-induced foci became larger and fewer over time as previously observed, IPA-induced foci remained small and numerous.
T-REx293 cells were split 2 days before imaging onto glass-bottom micro-well dishes (MatTek) at 5 × 10^4 cells/dish. Doxycyclin-containing medium (10 nM doxycycline) was added for 24 hr, withdrawn before imaging and replaced with imaging media (Hank's Balanced Salt Solution [Gibco], 2% FBS, and 5 mM HEPES pH 7.0). Images were acquired on a spinning-disk confocal microscope as described ([Li et al., 2010]).

HEK293T cells = assay: HEK293T cell viability (CellTiter-Blue, 24 hr); format: cell-based; conditions: 24 hr
Description: HEK293T cells were grown in DMEM (Sigma) complete media containing 10% FBS, 10 units/ml penicillin (Invitrogen), and 10 μg/ml streptomycin (Invitrogen). Cells were plated at a density of 30,000 cells per well in 96-well black plates with clear flat bottoms (Corning, Sigma-Aldrich) 24 hr before the experiment. A 12-point semi-logarithmic dilution series of compounds was made starting at 30 μM not to exceed 0.1% DMSO after final dilution into the growth media. Viability assays were conducted over the course of 24 hr. Cell viability was determined using CellTiter-Blue (Promega) following the manufacturer's instructions. […] Experiments were done in triplicate, and mean values were computed for each data point.

[2] = system: mouse embryonic fibroblast (MEFs) cells; assay: XBP1 mRNA splicing, PERK shift and eIF2α phosphorylation in WT, Ire1−/− and Perk−/− MEFs; format: cell-based; conditions: IPA 1 µM, 4 hr
From the text: PERK activation by IPA could be due to direct binding of IPA to PERK, or it could be caused by indirect activation of PERK by IRE1. If the latter were true, IPA should not trigger PERK activation in the absence of IRE1. To test this notion, we treated mouse embryonic fibroblasts (MEFs) derived from Ire1α^−/− and Perk^−/− knock-out mice with IPA and monitored XBP1 mRNA splicing, and PERK and eIF2α phosphorylation.
Cells were lysed and total RNA was collected (Total RNA Kit 1, EZ-RNA, EZNA [USA]). PolyA^+ mRNA was reverse transcribed with M-MLV (Invitrogen), and the resulting cDNA was used as a template for PCR amplification across the fragment of XBP1 cDNA containing the intron. Primers used to amplify human XBP1: 5′-[…]-3′ and 5′-[…]-3′. To amplify murine XBP1: 5′-[…]-3′ and 5′-[…]-3′. PCR conditions were as follows: 95°C for 5 min, 95°C for 1 min, 58°C for 30 s, 72°C for 30 s, and 72°C for 5 min, with 20 cycles of amplification. PCR products were resolved on a 2.5% agarose tris-acetate EDTA (TAE) gel. As previously reported, a hybrid amplicon species consisting of unspliced Xbp-1 annealed to spliced Xbp-1 can also be produced through this PCR reaction and was visible as a slower migrating band above the unspliced amplicon. The same cDNA was used as template for PCR of DERLIN-3 and HERPUD1, both ATF6 targets, and GAPDH, which was used as loading control. Primers used included the following: DERLIN-3, 5′-[…]-3′ and 5′-[…]-3′; HERPUD1-1, 5′-[…]-3′ and 5′-[…]-3′; GAPDH, 5′-[…]-3′ and 5′-[…]-3′. PCR conditions were: 95°C × 5 min, 95°C × 1 min, 56°C × 30 s, 72°C for 30 s for 25 cycles, 72°C for 5 min at 4°C. PCR products were resolved on a 2% agarose TAE gel.
Cells were lysed in 50 mM Tris-HCl, 2% SDS, 10% glycerol, 0.01% bromophenol blue, pH 6.8 supplemented with phosphatase inhibitors (Sigma) and protease inhibitors (Roche). 30 μg to 50 μg of total protein was loaded on each lane of 8% or 10% SDS-PAGE gels. The separated proteins were then transferred onto nitrocellulose membranes for immunoblotting. The following antibodies and dilutions were used: anti-β-actin 1:10,000 (A5441, Sigma), anti-total PERK at 1:1000 (C33E10, Cell Signaling Technology), anti-phospho eIF2α at 1:1000 (3597S, Cell Signaling Technology), anti-total eIF2α at 1:1000 (L57A5, Cell Signaling Technology). After overnight incubation with primary antibody, membranes were washed in PBS with 0.05% Tween and incubated in HRP-coupled secondary antibody anti-rabbit (611–1302, Rockland) or anti-mouse (610–1302, Rockland) diluted at 1:5000 in wash buffer. Immunoreactive bands were detected by chemiluminescence.

IRE1α-KR43 = IRE1α-KR43 (Homo sapiens, UniProt O75460); assay: FRET-based RNA cleavage assay (fluorescent HP17 substrate) of IRE1α-KR43 RNase activity
[3] = target: T1, GST-PERK kinase domain (580–1077 aa) (Mus musculus, UniProt Q9Z2B5); assay: In vitro GST-PERK kinase assay (eIF2α phosphorylation with γ-[32P]-ATP)
T1 sequence (Q9Z2B5 580-1077): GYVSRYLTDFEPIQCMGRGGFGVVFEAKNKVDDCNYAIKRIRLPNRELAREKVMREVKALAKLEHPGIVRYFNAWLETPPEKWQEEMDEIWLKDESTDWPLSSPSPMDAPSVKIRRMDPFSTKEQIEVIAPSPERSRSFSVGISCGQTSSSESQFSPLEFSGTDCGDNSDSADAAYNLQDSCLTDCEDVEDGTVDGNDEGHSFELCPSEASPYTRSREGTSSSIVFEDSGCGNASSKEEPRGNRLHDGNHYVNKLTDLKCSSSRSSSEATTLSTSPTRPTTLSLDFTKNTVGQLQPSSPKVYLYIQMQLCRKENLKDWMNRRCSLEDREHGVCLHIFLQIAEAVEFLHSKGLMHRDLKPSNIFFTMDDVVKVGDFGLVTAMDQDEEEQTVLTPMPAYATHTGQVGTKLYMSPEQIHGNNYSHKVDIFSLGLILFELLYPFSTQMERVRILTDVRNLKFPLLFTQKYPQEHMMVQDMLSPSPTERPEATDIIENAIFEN

Sequence of IRE1α-KR43 (O75460 465-977 limits assumed): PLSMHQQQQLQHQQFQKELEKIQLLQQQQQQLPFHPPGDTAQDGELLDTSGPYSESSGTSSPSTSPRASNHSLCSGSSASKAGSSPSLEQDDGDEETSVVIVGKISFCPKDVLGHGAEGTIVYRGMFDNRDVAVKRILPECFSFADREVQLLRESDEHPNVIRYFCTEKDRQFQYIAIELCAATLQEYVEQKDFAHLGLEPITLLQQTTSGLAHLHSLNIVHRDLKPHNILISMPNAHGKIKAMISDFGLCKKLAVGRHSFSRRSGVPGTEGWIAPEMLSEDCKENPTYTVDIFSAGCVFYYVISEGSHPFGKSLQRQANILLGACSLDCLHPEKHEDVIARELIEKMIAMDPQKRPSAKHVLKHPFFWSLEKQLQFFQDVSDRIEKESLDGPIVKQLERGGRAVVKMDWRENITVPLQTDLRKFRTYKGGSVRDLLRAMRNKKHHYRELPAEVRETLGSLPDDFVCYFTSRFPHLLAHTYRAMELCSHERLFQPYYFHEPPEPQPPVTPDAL

What does the source list for `CSc1ccc(NC(=O)Nc2ccc(Nc3nccc(Nc4cc(C5CC5)[nH]n4)n3)cc2)cc1` [IPA]?
IRE1α-GFP foci formation [1]: caused relocalization of IRE1α-GFP into foci; LD50 cell viability in the presence of 1 μM GSK (HEK293T cells; IPA + 1 μM GSK2606414): 6.21 µM and 6.2 µM; LD50 cell viability (HEK293T cells; IPA alone): 0.82 µM and 0.8 µM; PERK phosphorylation and eIF2α phosphorylation in Ire1α−/− MEFs ([2]; Ire1α−/− MEFs): pronounced PERK phosphorylation; XBP1 mRNA splicing in Ire1α−/− MEFs ([2]; Ire1α−/− MEFs): no IPA-induced XBP1 mRNA splicing; eIF2α phosphorylation in Perk−/− MEFs ([2]; Perk−/− MEFs): only a trace amount of IPA-induced eIF2α phosphorylation; UPR branch activation in wild-type MEFs ([2]; WT MEFs): induced both the PERK and IRE1 branches of the UPR; EC50 (IRE1α-KR43): 360 nM; IC50 [3]: 2800 nM
